In article PMC9088798, “An Approach to Derive Functional Peptide Inhibitors of Transcription Factor Activity” (JACS Au, 2022):

Key:
[1] = target: T1, cJun bZIP/TRE DNA interaction (Homo sapiens, UniProt P05412); experiment: EMSA, antagonism of cJun/TRE DNA interaction; assay type: biochemical; settings: cJun bZIP 20 μM, TRE DNA 2 μM, free DNA band intensity, 4°C 30 minutes, pH 8, 1.3% agarose gel; Hill equation; three independent experiments, one SD
T1 construct: The human cJun bZIP domain spans from Arg252 to Leu308; His-SUMO (N, cleaved yes); AS cap (two residues Ala-Ser) (N); GAP cap (three residues Gly-Ala-Pro) (C); made in house; host or cells: E. coli (pET21-His-SUMO plasmid)
T1 sequence (P05412 252-308): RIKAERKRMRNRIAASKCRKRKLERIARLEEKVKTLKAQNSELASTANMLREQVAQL
Description: Figure 6 HingeW antagonizes cJun/TRE DNA interaction more effectively than A-FosW. (A) CD spectra showing a shift in the TRE DNA peak at ∼281 nm upon addition of cJun, which is reversed by the titration of HingeW into the sample, as HingeW sequesters the cJun in a nonfunctional heterodimer. […] EMSA showing the (C) unbound TRE DNA band shift upon addition of cJun and the subsequent restoration of the unbound DNA band intensity upon titration of either (D) HingeW or (E) A-FosW. (F). For both CD and EMSA, data was averaged from three independent experiments and the plotted error bars indicate one standard deviation.
To provide further evidence of functional antagonism, an electrophoretic mobility shift assay (EMSA) was employed. […] No bound cJun/TRE DNA band was observed as the overall charge of this complex prohibited entry into the gel. Antagonism was therefore best observed by monitoring the intensity of the free DNA band. […]
Control experiments involved the injection of the antagonist peptide sample into the cell containing ITC buffer alone to determine the heat of dilution which was subtracted. The resulting binding data were fit to a one site binding model to extract the enthalpy change of binding (ΔH) and the equilibrium binding constant (K D), from which the free energy change of binding (ΔG) and the entropy change of binding (ΔS) was calculated (41). […]

[2] = system: cJun bZIP; experiment: CD spectroscopy, binding to cJun bZIP (helicity of heterodimer); design: species or system human; settings: 20 °C, total peptide 10 μM equimolar, pH 7.4
Description: Experiments were next undertaken to compare the binding of A-FosW and TBS-optimized HingeW to the cJun bZIP. CD spectroscopy was utilized to measure the global secondary structure of homo- and heterodimeric peptide samples, providing information on global α-helicity and thermal denaturation temperatures (Tm). The HingeW/cJun spectrum was 82% higher in α-helical content relative to the average of the two-component spectra (Figure 5A). […] This occurs as the total peptide concentration of the sample is kept constant (10 μM), meaning that the concentration of each component is halved upon mixing. If a sample component structure is unchanged upon mixing (i.e., no binding occurs), the CD signal for each component will average. The same, though smaller, trend was observed from the A-FosW/cJun spectra, where the α-helicity was 39% greater than the average (Figure 5B). This increased α-helical gain upon binding of HingeW/cJun implies a higher affinity interaction. Of note is that HingeW in isolation is 12.9% less helical relative to A-FosW. The AGADIR helical propensity calculator was used to calculate predicted helicity scores of 14.5 and 13.2 for A-FosW and HingeW, respectively.[42] […]
increased to the optimum 4 µM in subsequent passages. […] This allows the occurrence of library members to be monitored as winner sequences are selected for. […]

For “LEQRAEELARENEELEKEAEELEQELDELQAEIEQLEERNYALRKEIEDLQKQLEKL [A-FosW, N-terminal AS and C-terminal GAP caps, 6xHis-tagged]”, the IC50 [1] was 12.1 ± 1.9 µM, the “increase in α-helical content of heterodimer with cJun relative to average of component spectra” value ([2]; 150 mM potassium phosphate, 150 mM KF, 5 mM TCEP) was 39% and the “Fraction helicity of heterodimer with cJun” value [2] was 38.7%.
